Reference: patent US20160303056A1, “FASTING MIMICKING DIET (FMD) AND GLUCOSE LOWERING DRUGS PROTECT NORMAL CELLS AND GENERATE CANCER SENSITIZING CONDITIONS IN RESPONSE TO STANDARD AND HIGH GLUCOSE CONDITIONS INDUCED BY RAPAMYCIN AND DEXAMETHASONE” (UNIVERSITY OF SOUTHERN CALIFORNIA, priority 2015, published 2016)

Legend:
[1] = Blood glucose levels in mice injected ip with metformin; assay type: in vivo, mouse; conditions: metformin 50 mg/kg ip, saline for control mice (FIG. 1E)
C57BL/6 mice = conditions: mouse, in vivo
[2] = Circulating glucose levels in mice given rapamycin or dexamethasone, with or without insulin, STS or FMD; assay type: in vivo, mouse (C57BL/6); conditions: rapamycin or dexamethasone ip daily for 14 days, compared with ad lib (FIG. 1B)

SMILES	circulating glucose levels [1]	sensitization of mice to chemotherapy (mortality) (C57BL/6 mice)	circulating glucose levels [2]
CN(C)C(=N)NC(=N)N [Metformin, N,N-Dimethylimidodicarbonimidic diamide]	reducing circulating glucose levels		
C[C@@H]1C[C@H]2[C@@H]3CCC4=CC(=O)C=C[C@]4(C)[C@@]3(F)[C@@H](O)C[C@]2(C)[C@@]1(O)C(=O)CO [dexamethasone]		increased mortality	caused an increase in glucose levels
CO[C@H]1C[C@@H]2CC[C@@H](C)[C@@](O)(O2)C(=O)C(=O)N2CCCC[C@H]2C(=O)O[C@H]([C@H](C)C[C@@H]2CC[C@@H](O)[C@H](OC)C2)CC(=O)[C@H](C)/C=C(\C)[C@@H](O)[C@@H](OC)C(=O)[C@H](C)C[C@H](C)/C=C/C=C/C=C/1C [rapamycin]		increased mortality	caused an increase in glucose levels
